Inconclusive results are not listed. Activity calls are given as the source filed them. No rule for the calls is given here.
Test system: C. albicans CaCi-8 + fluconazole, Alamar Blue growth, 48 h
Assay: resistant C. albicans growth inhibition with fluconazole, dose response, CaCi-8 strain, Alamar Blue fluorescence (AID 2423)

Structure (SMILES) | EC50
O=C(COc1ccc(F)cc1)Nc1nc(-c2ccccn2)cs1 | 2230 nM
CCN(c1ccccc1)S(=O)(=O)c1ccc(C(=O)Nc2nnc(C3CC3)o2)cc1 | 2220 nM
CCCOc1cccc(-c2nnc(NC(=O)c3ccco3)s2)c1 | 622 nM
C=CCn1c(=N)n(CC(=O)c2cccc([N+](=O)[O-])c2)c2ccccc21 | > 16000 nM (inactive)
COc1cccc(C(=O)NNC(=O)c2ccccc2Br)c1 | > 15000 nM (inactive)
COc1cccc(F)c1C(C[N+](=O)[O-])c1c(N)n(C)c(=O)n(C)c1=O (stereo not drawn) | 1660 nM
O=Cc1ccc(O)c2ncccc12 | 1450 nM
Nc1c(S(=O)(=O)c2ccccc2)c2nc3ccccc3nc2n1CCN1CCOCC1 | 2970 nM
CCC(C)n1cnc2c(c1=O)c1nc3ccccc3nc1n2Cc1ccc(OC)cc1 (stereo not drawn) | 615 nM
Cc1cccc2sc(NNC(=O)c3cc(-c4cccs4)nc4ccccc34)nc12 | 583 nM
C/C(=N\O)c1cc(Cl)cc(Cl)c1O | 3660 nM
COc1cc(OC)cc(C(=O)Oc2c(CN3CCOCC3)cc(Cl)c3cccnc23)c1 | 2620 nM
Cc1cc(C(=O)Nc2nc(-c3ccccn3)cs2)ccc1[N+](=O)[O-] | 960 nM
C(#Cc1ccccc1)C[N+]1(CC#Cc2cccc3ccccc23)CCCC1 | 5640 nM
COc1ccc(OC)c2[nH]c(C(=O)N/N=C/c3ccccc3O)cc12 | 914 nM
O=C(Oc1ccc(Cl)c2cccnc12)c1cccc([N+](=O)[O-])c1 | 12300 nM
NC1=NC[C@H](Cc2ccccc2)N1CCCCC1CCCCC1 | 7380 nM
Cc1ccc(NCc2ccc(O)c3ncccc23)cc1 | 16000 nM
C(C#CCCCCCCCCC[n+]1ccccc1)#CCCCCCCCCC[n+]1ccccc1 | 3520 nM
C=CCN1C(=O)N/C(=C/c2ccc(N3CCOCC3)o2)C1=O | 796 nM
Oc1c(CN2CCOCC2)cc(COCc2ccccc2)c2cccnc12 | 963 nM
O=C(N/N=C/c1ccc(O)cc1O)c1ccc(CN2C(=O)c3cccc4cccc2c34)cc1 | 709 nM
COc1ccc(C(=O)NC(=S)NNC(=O)c2ccc3ccccc3n2)cc1 | 583 nM
CC(C)(C)c1ccc(CSc2cnn(C(C)(C)C)c(=O)c2Cl)cc1 | 324 nM
CCOc1cc(C=O)cc(N=Nc2cccc([N+](=O)[O-])c2)c1O | 639 nM
COc1ccc(C(=O)NC(=S)NNC(=O)c2ccc(C)cc2)cc1 | 2410 nM

Structure (SMILES) | EC50
CCN(CC)c1nc(N)c2c(N)nc3c(c2c1C#N)CC(c1ccccc1)O3 (stereo not drawn) | > 16000 nM (inactive)
Cc1ccc(C(C)C)c(OCc2ccc(C(=O)N/N=C/c3cccc(O)c3O)cc2)c1 | 788 nM
CCc1cc(-c2n[nH]c(=S)n2-c2ccccc2C)cs1 | 415 nM
Cc1c2ccccc2nc2c(F)c(NCCO)c(F)c(F)c12 | > 16000 nM (inactive)
NS(=O)(=O)c1ccc(N=Nc2ccc(O)c3ncccc23)cc1 | 1380 nM
O=C(N/N=C\c1cc(Cl)ccc1O)c1ccc(S(=O)(=O)N2CCCCC2)cc1 | 926 nM
CCOc1ccc(-n2c(O)c(/C=N/Nc3nc(C)cc(C)n3)c3ccccc3c2=O)cc1 | > 15000 nM (inactive)
CCN=c1scc(-c2ccc3c(c2)NC(=O)CO3)n1N=C1CCCC1 | 7220 nM
CCc1nnc(NC(=O)Cn2ccc(C(F)(F)F)n2)s1 | > 15000 nM (inactive)
O=C(NNC1=C(C(=O)C(F)(F)F)CCC1)c1cccc(Cl)c1 | 1960 nM
CC(C(=O)c1ccccc1)[n+]1cccc(Br)c1 (stereo not drawn) | > 15000 nM (inactive)
CCOc1ccc2nc(N=NC3=C(O)CC(C)(C)CC3=O)sc2c1 | > 16000 nM (inactive)
CC(=O)c1ncnn1CC(=O)c1ccc(Cl)cc1Cl | > 16000 nM (inactive)
O=C(Nc1ccc(N=Nc2ccccc2)c(NC(=O)C2CCCO2)c1)C1CCCO1 (stereo not drawn) | 4770 nM
Cc1[nH]c2ccccc2c1C(=O)CCl | 175 nM
C=C(C)c1cccc(C(C)(C)NC(=O)Nc2ccc(C(N)=O)cc2)c1 | > 15000 nM (inactive)
Cc1nn(-c2ccccc2)c(Cl)c1/C=C/C(=O)c1ccc(O)cc1 | 1640 nM
CC(Oc1cc2oc(=O)c3c(c2cc1Cl)CCCC3)C(=O)NCc1ccncc1 (stereo not drawn) | 6600 nM
O=C(CSc1cccc[n+]1[O-])CSc1cccc[n+]1[O-] | 13400 nM
O=C1N/C(=N\N=C\c2cccnc2)SC1Cc1ccc(SC(F)F)cc1 (stereo not drawn) | 3240 nM
CC(C)n1c(N2CCN(C(=O)Nc3ccc(Cl)cc3)CC2)nc2ccccc21 | > 15000 nM (inactive)
Cc1ccc(C)c(OC(=O)c2cncc(Br)c2)c1 | > 16000 nM (inactive)
CC[n+]1c(/C=C/N(C)c2ccccc2)sc2ccc(Cl)cc21 | 3150 nM
O=S(=O)(c1ccc(Cl)s1)N1CCCc2cccc(O)c21 | > 15000 nM (inactive)
CCOc1ccc(-c2ccc(NS(=O)(=O)c3ccc([N+](=O)[O-])cc3)cc2)nn1 | 2650 nM
O=C(N/N=C\c1c(O)ccc2ccccc12)c1ccc(S(=O)(=O)N2CCCCC2)cc1 | 279 nM

Structure (SMILES) | EC50
Cc1ccccc1C(=O)Nc1nnc(-c2ccc(F)cc2)o1 | 624 nM
CCCCC(=O)NC(c1ccc(N(C)C)cc1)c1ccc2cccnc2c1O (stereo not drawn) | 707 nM
O=C(Oc1cc2oc(=O)cc(-c3ccccc3)c2cc1Cl)C1CCCCC1 | 1200 nM
CN1CCN(CCCNC(=O)c2ccc(/C=C3\Oc4ccccc4N(Cc4ccc(Cl)cc4)C3=O)cc2)CC1 | 7660 nM
O=[N+]([O-])c1ccc(O)c(Nc2ncnc3ccc(Br)cc23)c1 | 150 nM
O=C(Nc1nnc(C2COc3ccccc3O2)o1)c1ccc(F)cc1 (stereo not drawn) | 910 nM
Cc1cccc(C(=O)NNC(=S)NC(=O)c2cccs2)c1 | 1460 nM
Cc1ccc(C2CC2C(=O)NNC(=S)Nc2cccc(Cl)c2)cc1 (stereo not drawn) | 3320 nM
C/C(=N\NC(=O)c1cc(-c2cccs2)nc2ccccc12)c1ccccn1 | 1820 nM
C=CCn1c(COc2ccc(F)cc2)nnc1SCC(=O)Nc1cccc(S(N)(=O)=O)c1 | > 16000 nM (inactive)
COc1ccc(NC(=O)NNC(=O)c2cc3ccccc3cc2O)cc1 | > 16000 nM (inactive)
Cc1ccc(O)c(C(=O)CC(=O)c2ccccc2Cl)c1 | 1570 nM
CCc1ccccc1NC(=S)N=Nc1c(O)n(C)c2ccc(S(=O)(=O)N3CCOCC3)cc12 | 5160 nM
COc1cc(OC)cc(C(=O)NNC(=O)Cc2ccc(OC)c(S(=O)(=O)N3CCOCC3)c2)c1 | > 15000 nM (inactive)
CCCc1ccc(C2C3=C(CC(C)(C)CC3=O)NC3=C2C(=O)c2ccccc23)cc1 (stereo not drawn) | 1780 nM
COc1cccc(C(=O)NNC(=O)c2ccc3ccccc3c2O)c1 | 9440 nM
CC(C)CCOC(=O)C[N+](C)(C)CCOC1CC2CCC1(C)C2(C)C (stereo not drawn) | 3050 nM
Cc1cccc(C2c3[nH]c4ccccc4c3CCN2C(=O)c2cc(-c3cccn3C)n[nH]2)n1 (stereo not drawn) | 1050 nM
C/C(=N\NC(=O)c1cc2ccccc2cc1O)c1ccccn1 | 1450 nM
COc1cccc(/C=N/Nc2cc(N3CCOCC3)ncn2)c1O | 6270 nM
COc1ccc(-c2cc(=O)oc3cc(OC(=O)C4CCCCC4)c(Cl)cc23)cc1 | 1120 nM
CCc1ccc(C2c3[nH]c4ccccc4c3CCN2C(=O)c2ccc(=O)n(C)n2)cc1 (stereo not drawn) | 339 nM
CCn1cc(C(=O)OCC(=O)Nc2cccc(Cl)c2Cl)c(=O)c2ccc(C)nc21 | > 15000 nM (inactive)
Oc1ccc(/C=N/NP(=S)(c2ccccc2)c2ccccc2)c(O)c1O | 8830 nM
CC(C)[C@H]1C(=O)O[C@H](C(C)C)C(=O)N(C)[C@@H](C(C)C)C(=O)O[C@H](C(C)C)C(=O)N(C)[C@@H](C(C)C)C(=O)O[C@H](C(C)C)C(=O)N1C | > 15000 nM (inactive)
Cc1ccc(/C=C/C(=O)c2ccccc(=O)c2O)c(C)c1 | 1260 nM

Source: PubChem BioAssay AID2423 (Broad Institute, 2010)
